Values after ≈ are worked out from the molar mass of the structure shown.
Experiments:
H. somnus = test: Bacteria separation test from nasal cavity swab; assay type: in vivo, cattle
[1] = In vivo kinetics (absorption and excretion test) in mice; conditions: male, Slc ddY, mouse, sc, 5 mg/kg
P. haemolytica 63-39 = test: Sensitivity (MIC), agar plate dilution method; conditions: Mannheimia haemolytica, 6339
S. aureus FDA209P = test: Minimum inhibition concentration (MIC), agar double dilution method; assay type: cell-based, Staphylococcus aureus; conditions: Staphylococcus aureus, Mueller hinton agar, read-out: MIC
Description: Test 1; Minimum Inhibition Concentration (MIC)
MIC was measured, based on the standard method of Japan Society of Chemotherapy, on a BHI agar medium (Brain heart-infusion agar, made by Difco Laboratories Inc.(USA)) with respect to Pasteurella and on a Mueller hinton agar medium (Mueller hinton agar, made by Difco, Laboratories Inc.(USA)) with respect to the other test bacteria in both cases according to the double dilution method.

CC[C@H]1OC(=O)C[C@@H](O)[C@H](C)[C@@H](O[C@@H]2O[C@H](C)C(O)C(N(C)C)C2O)[C@@H](CCN2CC(C)CC(C)C2)C[C@@H](C)C(=O)/C=C/C(C)=C/[C@@H]1CO[C@@H]1OC(C)C(O)[C@@H](OC)C1OC (some centres unmarked) [Tilmicosin, tilmicosin]
Separation rate (%) at completion (number of animal) (H. somnus; at completion): 0 (0/5) % (number of animal)
Separation rate (%) before administration (number of animal) (H. somnus; before administration (baseline)): 0 (0/5) % (number of animal)
concentration at 0.5 h ([1]; lung): 310 ng/g
concentration at 1 h ([1]; lung): 350 ng/g
concentration at 2 h ([1]; lung): 310 ng/g
concentration at 4 h ([1]; lung): 230 ng/g
concentration at 8 h ([1]; lung): 195 ng/g
concentration at 24 h ([1]; lung): 60 ng/g
concentration at 0.5 h ([1]; serum): 230 ng/mL
concentration at 1 h ([1]; serum): 60 ng/mL
concentration at 2 h ([1]; serum): 50 ng/mL
concentration at 4 h ([1]; serum): 40 ng/mL
MIC (P. haemolytica 63-39): 3.13 µg/mL (≈ 3.6 µM)
MIC (S. aureus FDA209P): 0.39 µg/mL (≈ 0.449 µM)
